The source of these data is PMC9064041 (Journal of medicinal chemistry, 2020).

In data set [1] the test system is C. difficile ATCC BAA 1801. Kind of data set: MIC, broth microdilution, initial screening. In kind it is cell-based, Clostridioides difficile. As to conditions: for MIC: C. difficile ATCC BAA 1801, anaerobic, 48 hours. For orientation: Broth dilution looks for growth in wells or tubes with falling amounts of substance.
The subject of data set [2] is Bacteroides fragilis HM-709. Put plainly: MIC against normal gut microbiota. It is filed as cell-based. As to conditions: HM709.
For another data set, the system named is C. difficile ATCC 43255. Put plainly: MIC, broth microdilution, clinical isolate. It is filed as cell-based. As to conditions: Clostridioides difficile, ATCC43255.
Data set [3] deals with Lactobacillus crispatus HM-103. Kind of data set: MIC against normal gut microbiota. As to conditions: HM103. In kind it is cell-based.
Data set [4] deals with Lactobacillus gasseri HM-400. Put plainly: MIC against normal gut microbiota. It is filed as cell-based. The following applies: HM400.
Data set [5] relates to Bacteroides fragilis HM-711. Put plainly: MIC against normal gut microbiota. As to conditions: HM711. It is filed as cell-based.
Data set [6] relates to C. difficile NR-32904 (P30). Put plainly: MIC, broth microdilution, clinical isolate. In kind it is cell-based. The following applies: Clostridioides difficile.
In data set [7] the test system is C. difficile NR-32891 (P13). Kind of data set: MIC, broth microdilution, clinical isolate. It is filed as cell-based. As to conditions: Clostridioides difficile.
Data set [8] concerns Lactobacillus crispatus HM-371. Kind of data set: MIC against normal gut microbiota. The following applies: HM371. In kind it is cell-based.
In data set [9] the test system is E. coli BW25113 (wild-type strain). Put plainly: MIC, broth microdilution. In kind it is cell-based, Escherichia coli. The following applies: Escherichia coli, BW25113.
Data set [10] relates to E. coli JW55031 (TolC Mutant). Kind of data set: MIC, broth microdilution. It is filed as cell-based. The following applies: Escherichia coli.
In the next data set the test system is E. faecalis ATCC 51299. Put plainly: MIC, broth microdilution. It is filed as cell-based. As to conditions: Enterococcus faecalis, ATCC51299.
The subject of a further data set is E. faecium ATCC 700221. Kind of data set: MIC, broth microdilution. It is filed as cell-based. As to conditions: Enterococcus faecium, ATCC700221.
The subject of a further data set is Caco-2 bilayers. Kind of data set: Caco-2 bidirectional permeability assay. It is filed as in vitro ADME, human. (Caco-2 cells form a polarised layer with tight junctions and transporters.)
Setting [11] is: Clostridioides difficile, BAA1801, 48 h.

The term MIC denotes the least concentration at which growth counts as inhibited. A high value points to weaker potency.

Values after ≈ are worked out from the molar mass of the structure shown. Values joined by “and” are separate entries in the source; they are usually repeats but may differ in a detail not shown here. Equal entries are not always repeated.

For the compound `Cc1ccc(-c2nnc(NC(=O)c3ccc(SC(F)(F)F)cc3)o2)cc1` [Compound 12, N-(5-(4-Methylphenyl)-1,3,4-oxadiazol-2-yl)-4-((trifluoromethyl)thio)benzamide], the “activity against C. difficile ATCC BAA 1801 in words” value (“activity” for short) in data set [1] is on record as “only moderate to no actvity”. For the compound `CCc1c(Cl)c(O)c(Cl)c(O)c1C(=O)O[C@H]1[C@H](O)[C@H](OC)[C@H](OC/C2=C\C=C\C[C@H](O)/C(C)=C/[C@H](CC)[C@@H](O[C@@H]3OC(C)(C)[C@@H](OC(=O)C(C)C)[C@H](O)[C@@H]3O)/C(C)=C/C(C)=C/C[C@@H]([C@@H](C)O)OC2=O)O[C@@H]1C` [Fidaxomicin], the MIC in [2] is over 64 µg/mL; in the data set on C. difficile ATCC 43255, 0.015 µg/mL (≈ 0.0142 µM); in data set [3] it was > 64 µg/mL and > 60.5 µM; in [4], over 64 µg/mL; in data set [5] it was > 64 µg/mL and > 60.5 µM; in data set [6], 0.015 µg/mL (≈ 0.0142 µM). Moreover, the MIC in data set [7] was 0.015 µg/mL (≈ 0.0142 µM); in data set [8], over 64 µg/mL. Regarding `CNC(C)C1CCC(N)C(OC2C(N)CC(N)C(OC3OCC(C)(O)C(NC)C3O)C2O)O1` (stereo not shown) [Gentamicin], the MIC in [9] is 0.25 µg/mL and 0.52 µM; in data set [10] it was 0.25 µg/mL and 0.52 µM.

With `CC(=O)NC[C@H]1CN(c2ccc(N3CCOCC3)c(F)c2)C(=O)O1` [Linezolid], the MIC in the data set on E. faecalis ATCC 51299 was 1 µg/mL (≈ 2.96 µM); in data set [9] it was > 64 µg/mL and > 190 µM; with E. faecium ATCC 700221 it was 1 µg/mL (≈ 2.96 µM); in data set [10] it was 16 µg/mL (≈ 47.4 µM).

As to `CC(C)NCC(O)COc1cccc2ccccc12` (stereo not shown) [Propranolol], in the data set on Caco-2 bilayers, the “Notes (permeability class)” value is reported as “High Permeability Control”. Still for that read-out and setting: as for `CNC(=C[N+](=O)[O-])NCCSCc1ccc(CN(C)C)o1` [Ranitidine], the entry is “Low Permeability Control”. For `O=C(Nc1nnc(-c2ccccc2)o1)c1ccc(SC(F)(F)F)cc1` [compound 1, N-(5-Phenyl-1,3,4-oxadiazol-2-yl)-4-((trifluoromethyl)thio)benzamide], it took 2 µg/mL (≈ 5.47 µM) to inhibit growth in data set [1] (setting [11]) (MIC). Same read-out and setting: as for `O=C(Nc1nnc(-c2ccccc2F)o1)c1ccc(SC(F)(F)F)cc1` [compound 2, N-(5-(2-Fluorophenyl)-1,3,4-oxadiazol-2-yl)-4-((trifluoromethyl)thio)benzamide], the figure is 4 µg/mL (≈ 10.4 µM). The same measure, in the same setting: in the case of `O=C(Nc1nnc(-c2ccccc2Cl)o1)c1ccc(SC(F)(F)F)cc1` [compound 3, N-(5-(2-Chlorophenyl)-1,3,4-oxadiazol-2-yl)-4-((trifluoromethyl)thio)benzamide] it was 4 µg/mL (≈ 10 µM).

The compound `O=C(Nc1nnc(-c2cccc(F)c2)o1)c1ccc(SC(F)(F)F)cc1` [compound 4, N-(5-(3-Fluorophenyl)-1,3,4-oxadiazol-2-yl)-4-((trifluoromethyl)thio)benzamide] gave an MIC in data set [1] (setting [11]) of 0.03 µg/mL (≈ 0.0783 µM). On the same count and under the same terms, in the case of `O=C(Nc1nnc(-c2cccc(Cl)c2)o1)c1ccc(SC(F)(F)F)cc1` [compound 5, N-(5-(3-Chlorophenyl)-1,3,4-oxadiazol-2-yl)-4-((trifluoromethyl)thio)benzamide] it was 0.03 µg/mL (≈ 0.075 µM). For the compound `COc1cccc(-c2nnc(NC(=O)c3ccc(SC(F)(F)F)cc3)o2)c1` [compound 6, N-(5-(3-Methoxyphenyl)-1,3,4-oxadiazol-2-yl)-4-((trifluoromethyl)thio)benzamide], the “activity” value in data set [1] was “only moderate to no actvity”. Moreover, the MIC in [1] (setting [11]) is 4 µg/mL (≈ 10.1 µM). In the case of `O=C(Nc1nnc(-c2cccc(C(F)(F)F)c2)o1)c1ccc(SC(F)(F)F)cc1` [compound 7, N-(5-(3-Trifluoromethylphenyl)-1,3,4-oxadiazol-2-yl)-4-((trifluoromethyl)thio)benzamide], in [1] (setting [11]), the MIC came out at 0.015 µg/mL (≈ 0.0346 µM). On the same count and under the same terms, in the case of `O=C(Nc1nnc(-c2ccc(F)cc2)o1)c1ccc(SC(F)(F)F)cc1` [compound 8, N-(5-(4-Fluorophenyl)-1,3,4-oxadiazol-2-yl)-4-((trifluoromethyl)thio)benzamide] it was 4 µg/mL (≈ 10.4 µM). Still for that read-out and setting: in the case of `O=C(Nc1nnc(-c2ccc(Cl)cc2)o1)c1ccc(SC(F)(F)F)cc1` [compound 9, N-(5-(4-Chlorophenyl)-1,3,4-oxadiazol-2-yl)-4-((trifluoromethyl)thio)benzamide] it was 2 µg/mL (≈ 5 µM); in that of `O=C(Nc1nnc(-c2ccc(C(F)(F)F)cc2)o1)c1ccc(SC(F)(F)F)cc1` [compound 10, N-(5-(4-Trifluoromethylphenyl)-1,3,4-oxadiazol-2-yl)-4-((trifluoromethyl)thio)benzamide], 0.125 µg/mL (≈ 0.288 µM). With `COc1ccc(-c2nnc(NC(=O)c3ccc(SC(F)(F)F)cc3)o2)cc1` [compound 11, N-(5-(4-Methoxyphenyl)-1,3,4-oxadiazol-2-yl)-4-((trifluoromethyl)thio)benzamide], the “activity” value in data set [1] is “only moderate to no actvity”. Further, the MIC in [1] (setting [11]) is 4 µg/mL (≈ 10.1 µM).

With `CC(C)c1ccc(-c2nnc(NC(=O)c3ccc(SC(F)(F)F)cc3)o2)cc1` [compound 13, N-(5-(4-Isopropylphenyl)-1,3,4-oxadiazol-2-yl)-4-((trifluoromethyl)thio)benzamide], the “activity” value in [1] is “only moderate to no actvity”. The compound further gave an MIC in data set [1] (setting [11]) of 128 µg/mL (≈ 314 µM). With `O=C(Nc1nnc(-c2ccc(Cl)cc2Cl)o1)c1ccc(SC(F)(F)F)cc1` [compound 14, N-(5-(2,4-Dichlorophenyl)-1,3,4-oxadiazol-2-yl)-4-((trifluoromethyl)thio)benzamide], the MIC in [1] was determined as 0.03 µg/mL (≈ 0.0691 µM); in [1] (setting [11]), 0.06 µg/mL (≈ 0.138 µM).

In [1] (setting [11]), `COc1ccc(Cl)cc1-c1nnc(NC(=O)c2ccc(SC(F)(F)F)cc2)o1` [compound 16, N-(5-(5-Chloro-2-methoxyphenyl)-1,3,4-oxadiazol-2-yl)-4-((trifluoromethyl)thio)benzamide] displayed an MIC of 2 µg/mL (≈ 4.65 µM). In the case of `O=C(Nc1nnc(-c2ccccn2)o1)c1ccc(SC(F)(F)F)cc1` [compound 17, N-(5-(Pyridin-2-yl)-1,3,4-oxadiazol-2-yl)-4-((trifluoromethyl)thio)benzamide], the “activity” value in [1] is listed as “only moderate activity”. The compound further yielded an MIC in data set [1] (setting [11]) of 8 µg/mL (≈ 21.8 µM).
